Laboratory results as given in patent publication US12612424B2, “HPK1 inhibitors and uses thereof” (Regor Pharmaceuticals, Inc., priority 2019, dated 2026).

Test system: Human Pan T Cell (IL-2 release)
Test: IL2 released by human pan T cell upon anti-CD3/anti-CD28 stimulation (ELISA)
Assay type: cell-based
Conditions: human pan T cells; for maximal fold induction: read-out: IL-2 Max Fold Response; for EC50: IL-2 response, calculated with GraphPad Prism
In short: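 Primary human pan-T cells, negatively isolated from PBMC, plated at 100,000 cells/well and stimulated with immobilized anti-CD3 plus soluble anti-CD28 in presence of test compound at varying concentrations. After 2 days, secreted IL-2 in supernatant quantified by ELISA.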

[1] = Homo sapiens, T-cell, 48 h, response of IL-2 over DMSO control, anti-CD3/anti-CD28, 48 hours, ELISA
[2] = concentration of compound that gives 200% IL-2 response (2 folds) over DMSO control

Row | EC50 (Homo sapiens, T-cell) [nM] | EC50 [nM] | Compound | maximal fold induction [1] | EC2x (nM) [2] | EC (2-fold response) (Homo sapiens, T-cell, 48 h, concentration of compound that gives 200% IL-2 response (2 folds) over DMSO control) [µM] | IL-2 Max Fold Response (response of IL-2 over DMSO control, anti-CD3/anti-CD28, 48 hours, ELISA)
1 | > 1000 | – | COc1cc2c(cc1Nc1ncc(Cl)c(N3CC(c4nn[nH]n4)c4ccccc43)n1)CN(C)CC2 (stereo not drawn) [Example 100, N-(4-(3-(2H-tetrazol-5-yl)indolin-1-yl)-5-chloropyrimidin-2-yl)-6-methoxy-2-methyl-1,2,3,4-tetrahydroisoquinolin-7-amine] | > 2 | + (“+”, for greater than 1 μM) | – | –
2 | > 1000 | – | COc1cc2c(cc1Nc1ncc(Cl)c(-c3cn(CC(=O)O)c4ccccc34)n1)CN(C)CC2 [Example 161] | > 2 | + (“+”, for greater than 1 μM) | – | –
3 | 100 to 500 | – | COc1cc2c(cc1Nc1ncc(Cl)c(-n3cc(S(N)(=O)=O)c4ccccc43)n1)CN(C)CC2 [Example 83, 1-(5-Chloro-2-((6-methoxy-2-methyl-1,2,3,4-tetrahydroisoquinolin-7-yl)amino)pyrimidin-4-yl)-1H-indole-3-sulfonamide] | < 2 | – | – | –
4 | 100 to 500 | – | COC(=O)C1CN(c2nc(Nc3cc4c(cc3OC)CCN(C)C4)ncc2Cl)c2ccccc21 (stereo not drawn) [Example 115, Methyl 1-(5-chloro-2-((6-methoxy-2-methyl-1,2,3,4-tetrahydroisoquinolin-7-yl)amino)pyrimidin-4-yl)indoline-3-carboxylate] | > 2 | – | 0.1 to 0.5 | –
5 | 100 to 500 | – | COc1cc2c(cc1Nc1ncc(Cl)c(N3CC(CO)c4ccccc43)n1)CN(C)CC2 (stereo not drawn) [Example 87] | < 2 | – | – | –
6 | 100 to 500 | – | COc1cc2c(cc1Nc1ncc(F)c(N3CC(C(=O)O)c4ccccc43)n1)CN(C)CC2 (stereo not drawn) [Example 109, 1-(5-Fluoro-2-((6-methoxy-2-methyl-1,2,3,4-tetrahydroisoquinolin-7-yl)amino)pyrimidin-4-yl)indoline-3-carboxylic acid] | > 2 | ++ (“++”, for higher values than “+++” but less than or equal to 1 μM) | – | –
7 | > 1000 | – | COc1cc2c(cc1Nc1ncc(Cl)c(-n3cc(CC#N)c4ccccc43)n1)CN(C)CC2 [Example 134] | < 2 | – | – | –
8 | – | – | CCOC(=O)CC1(C)CN(c2nc(Nc3cc4c(cc3OC)CCN(C)C4)ncc2Cl)c2ccccc21 (stereo not drawn) [Example 149] | < 2 | – | – | –
9 | 500 to 1000 | – | CNC(=O)Cc1cn(-c2nc(Nc3cc4c(cc3OC)CCN(C)C4)ncc2Cl)c2ccccc12 [Example 136] | < 2 | – | – | –
10 | > 1000 | – | COc1cc2c(cc1Nc1ncc(Cl)c(N3C[C@](C)(C(=O)O)c4ccccc43)n1)CN(C)CC2 (single isomer, unassigned) [Example 118] | < 2 | – | – | –
11 | – | 100 to 500 | COc1cc2c(cc1Nc1ncc(Cl)c(N3CC(C)(CC(=O)O)c4ccc(F)cc43)n1)CN(C)CC2 (single isomer, unassigned) [Example 153] | – | +++ (“+++”, for higher values than “++++” but less than or equal to 500 nM) | – | >2
12 | > 1000 | – | COc1cc2c(cc1Nc1ncc(Cl)c(N3CC(C(=O)O)C4(CCCC4)C3)n1)CN(C)CC2 (stereo not drawn) [Example 169, 2-(5-Chloro-2-((6-methoxy-2-methyl-1,2,3,4-tetrahydroisoquinolin-7-yl)amino)pyrimidin-4-yl)-2-azaspiro[4.4]nonane-4-carboxylic acid] | > 2 | ++ (“++”, for higher values than “+++” but less than or equal to 1 μM) | – | –
13 | 500 to 1000 | – | COC(=O)C1(C)CN(c2nc(Nc3cc4c(cc3OC)CCN(C)C4)ncc2Cl)c2ccccc21 (stereo not drawn) [Example 116] | > 2 | ++ (“++”, for higher values than “+++” but less than or equal to 1 μM) | – | –
14 | – | – | COc1cc2c(cc1Nc1ncc(Cl)c(N3CCc4ccc(C(F)F)cc43)n1)CN(C)CC2 [Example 91, N-(5-chloro-4-(6-(difluoromethyl)indolin-1-yl)pyrimidin-2-yl)-6-methoxy-2-methyl-1,2,3,4-tetrahydroisoquinolin-7-amine] | < 2 | – | – | –
